In ChEMBL document CHEMBL3885861, “Open TG-GATES”:

Species on record: Rattus norvegicus
Test: Open TG-GATES - Regimen: Daily Repeat
Type: toxicity, organism-based, Sprague-Dawley
Parameters: regimen Daily Repeat, gender Male, age 6 weeks
Conditions: in vivo, po, 750 mg/kg, route gavage, dose level High; for APTT / Bas / Eos / Fbg / Hb / Ht / Lym / MCH / MCHC / MCV / Mono / Neu / PT / Plat / RBC / Ret / WBC: tissue Blood; for KIDNEY_L / KIDNEY_R / KIDNEY_TOTAL: tissue Kidney; for LIVER: tissue Liver; for A/G / ALP / ALT / AST / BUN / CRE / Ca / Cl / DBIL / GLC / IP / K / LDH / Na / PL / RALB / TBIL / TC / TG / TP / gamma-GTP: tissue Plasma

Work on CN(C/C=C/C#CC(C)(C)C)Cc1cccc2ccccc12 [TERBINAFINE] yielded a TERMINAL_BW (72 h, time 3 day) of 217.7 g, an APTT (72 h, time 3 day) of 22.6 s and a Bas (72 h, time 3 day) of 0.8%. It also gave an Eos (72 h, time 3 day) of 0.8%, a Fbg (72 h, time 3 day) of 200.6 mg/dL and a Hb (72 h, time 3 day) of 14.1 g/dL. For the same compound, the Ht (72 h, time 3 day) was 41.1%, the Lym (72 h, time 3 day) was 82.8% and the MCH (72 h, time 3 day) was 20.9 pg. The MCHC (72 h, time 3 day) was 34.2%, the MCV (72 h, time 3 day) was 61 fL and the Mono (72 h, time 3 day) was 2.6%. It also gave a Neu (72 h, time 3 day) of 13%, a PT (72 h, time 3 day) of 12.5 s and a Plat (72 h, time 3 day) of 137.3 x10_4/uL. For the same compound, the RBC (72 h, time 3 day) was 673.8 x10_4/ul, the Ret (72 h, time 3 day) was 4.5% and the WBC (72 h, time 3 day) was 64.8 x10_2/uL. For the same compound, the KIDNEY_L (72 h, time 3 day) was 1 g, the KIDNEY_R (72 h, time 3 day) was 1.1 g and the KIDNEY_TOTAL (72 h, time 3 day) was 2.1 g. It also gave an LIVER (72 h, time 3 day) of 11.4 g, an A/G (72 h, time 3 day) of 2 and an ALP (72 h, time 3 day) of 748.6 IU/L. The ALT (72 h, time 3 day) was 34.6 IU/L, the AST (72 h, time 3 day) was 62.6 IU/L and the BUN (72 h, time 3 day) was 10.6 mg/dL. For the same compound, the CRE (72 h, time 3 day) was 0.4 mg/dL, the Ca (72 h, time 3 day) was 9.5 mg/dL and the Cl (72 h, time 3 day) was 102.8 meq/L. For the same compound, the DBIL (72 h, time 3 day) was 0.09 mg/dL, the GLC (72 h, time 3 day) was 172 mg/dL and the IP (72 h, time 3 day) was 9.2 mg/dL. For the same compound, the K (72 h, time 3 day) was 3.8 meq/L, the LDH (72 h, time 3 day) was 207.4 IU/L and the Na (72 h, time 3 day) was 140.8 meq/L. For the same compound, the PL (72 h, time 3 day) was 123.2 mg/dL, the RALB (72 h, time 3 day) was 3.6 g/dL and the TBIL (72 h, time 3 day) was 0.2 mg/dL. It also gave a TC (72 h, time 3 day) of 81 mg/dL, a TG (72 h, time 3 day) of 19.2 mg/dL and a TP (72 h, time 3 day) of 5.4 g/dL. For the same compound, the gamma-GTP (72 h, time 3 day) was 1.8 IU/L, the TERMINAL_BW ([…], time 7 day) was 187.9 g and the TERMINAL_BW ([…], time 14 day) was 255.9 g. The TERMINAL_BW ([…], time 28 day) was 360.5 g, the APTT ([…], time 7 day) was 45.7 s and the Bas ([…], time 7 day) was 1%. It also gave an Eos ([…], time 7 day) of 0.6%, a Fbg ([…], time 7 day) of 187.6 mg/dL and a Hb ([…], time 7 day) of 15.9 g/dL. The Ht ([…], time 7 day) was 45.2%, the Lym ([…], time 7 day) was 77.6% and the MCH ([…], time 7 day) was 21.1 pg. The MCHC ([…], time 7 day) was 35.2%, the MCV ([…], time 7 day) was 59.8 fL and the Mono ([…], time 7 day) was 4.6%. It also gave a Neu ([…], time 7 day) of 15.8%, a PT ([…], time 7 day) of 30.8 s and a Plat ([…], time 7 day) of 146 x10_4/uL. For the same compound, the RBC ([…], time 7 day) was 755 x10_4/ul, the Ret ([…], time 7 day) was 0.3% and the WBC ([…], time 7 day) was 82.6 x10_2/uL. For the same compound, the APTT ([…], time 14 day) was 21.4 s, the Bas ([…], time 14 day) was 0.6% and the Eos ([…], time 14 day) was 0.6%. The Fbg ([…], time 14 day) was 198.4 mg/dL, the Hb ([…], time 14 day) was 13.8 g/dL and the Ht ([…], time 14 day) was 40.2%. For the same compound, the Lym ([…], time 14 day) was 70.4%, the MCH ([…], time 14 day) was 20.7 pg and the MCHC ([…], time 14 day) was 34.3%. It also gave an MCV ([…], time 14 day) of 60.3 fL, a Mono ([…], time 14 day) of 3.2% and a Neu ([…], time 14 day) of 24.4%. The PT ([…], time 14 day) was 11.9 s, the Plat ([…], time 14 day) was 119.4 x10_4/uL and the RBC ([…], time 14 day) was 667 x10_4/ul. For the same compound, the Ret ([…], time 14 day) was 5.8%, the WBC ([…], time 14 day) was 116.6 x10_2/uL and the APTT ([…], time 28 day) was 26 s. For the same compound, the Bas ([…], time 28 day) was 0.4%, the Eos ([…], time 28 day) was 1% and the Fbg ([…], time 28 day) was 211.6 mg/dL. For the same compound, the Hb ([…], time 28 day) was 14 g/dL, the Ht ([…], time 28 day) was 40.2% and the Lym ([…], time 28 day) was 76.4%. It also gave an MCH ([…], time 28 day) of 19.8 pg, an MCHC ([…], time 28 day) of 34.8% and an MCV ([…], time 28 day) of 57.1 fL. It also gave a Mono ([…], time 28 day) of 3.4%, a Neu ([…], time 28 day) of 18.4% and a PT ([…], time 28 day) of 12.8 s. It also gave a Plat ([…], time 28 day) of 110.7 x10_4/uL, an RBC ([…], time 28 day) of 705.6 x10_4/ul and a Ret ([…], time 28 day) of 2.9%. The WBC ([…], time 28 day) was 115.7 x10_2/uL, the KIDNEY_L ([…], time 7 day) was 1.1 g and the KIDNEY_R ([…], time 7 day) was 1.1 g. For the same compound, the KIDNEY_TOTAL ([…], time 7 day) was 2.2 g, the KIDNEY_L ([…], time 14 day) was 1.2 g and the KIDNEY_R ([…], time 14 day) was 1.3 g. It also gave a KIDNEY_TOTAL ([…], time 14 day) of 2.5 g, a KIDNEY_L ([…], time 28 day) of 1.6 g and a KIDNEY_R ([…], time 28 day) of 1.7 g. It also gave a KIDNEY_TOTAL ([…], time 28 day) of 3.3 g, an LIVER ([…], time 7 day) of 12.4 g and an LIVER ([…], time 14 day) of 16.5 g. It also gave an LIVER ([…], time 28 day) of 21.9 g, an A/G ([…], time 7 day) of 1.9 and an ALP ([…], time 7 day) of 692.8 IU/L. The ALT ([…], time 7 day) was 52 IU/L, the AST ([…], time 7 day) was 81.4 IU/L and the BUN ([…], time 7 day) was 14.6 mg/dL. For the same compound, the CRE ([…], time 7 day) was 0.5 mg/dL, the Ca ([…], time 7 day) was 9.1 mg/dL and the Cl ([…], time 7 day) was 103.6 meq/L. The DBIL ([…], time 7 day) was 0.1 mg/dL, the GLC ([…], time 7 day) was 141 mg/dL and the IP ([…], time 7 day) was 7 mg/dL. For the same compound, the K ([…], time 7 day) was 4.6 meq/L, the LDH ([…], time 7 day) was 214.2 IU/L and the Na ([…], time 7 day) was 142.4 meq/L. It also gave a PL ([…], time 7 day) of 145 mg/dL, an RALB ([…], time 7 day) of 3.5 g/dL and a TBIL ([…], time 7 day) of 0.2 mg/dL. For the same compound, the TC ([…], time 7 day) was 96.8 mg/dL, the TG ([…], time 7 day) was 21.4 mg/dL and the TP ([…], time 7 day) was 5.3 g/dL. It also gave a gamma-GTP ([…], time 7 day) of 2.6 IU/L, an A/G ([…], time 14 day) of 1.7 and an ALP ([…], time 14 day) of 536.8 IU/L. It also gave an ALT ([…], time 14 day) of 37 IU/L, an AST ([…], time 14 day) of 60.2 IU/L and a BUN ([…], time 14 day) of 15.8 mg/dL. The CRE ([…], time 14 day) was 0.4 mg/dL, the Ca ([…], time 14 day) was 10.4 mg/dL and the Cl ([…], time 14 day) was 103 meq/L. For the same compound, the DBIL ([…], time 14 day) was 0.074 mg/dL, the GLC ([…], time 14 day) was 183 mg/dL and the IP ([…], time 14 day) was 7.8 mg/dL. The K ([…], time 14 day) was 4 meq/L, the LDH ([…], time 14 day) was 151.8 IU/L and the Na ([…], time 14 day) was 142.8 meq/L. For the same compound, the PL ([…], time 14 day) was 136.4 mg/dL, the RALB ([…], time 14 day) was 3.8 g/dL and the TBIL ([…], time 14 day) was 0.1 mg/dL. For the same compound, the TC ([…], time 14 day) was 82 mg/dL, the TG ([…], time 14 day) was 20.4 mg/dL and the TP ([…], time 14 day) was 6.1 g/dL. For the same compound, the gamma-GTP ([…], time 14 day) was 1.2 IU/L, the A/G ([…], time 28 day) was 1.8 and the ALP ([…], time 28 day) was 601.2 IU/L. The ALT ([…], time 28 day) was 50 IU/L, the AST ([…], time 28 day) was 65.4 IU/L and the BUN ([…], time 28 day) was 14.8 mg/dL. For the same compound, the CRE ([…], time 28 day) was 0.5 mg/dL, the Ca ([…], time 28 day) was 10.2 mg/dL and the Cl ([…], time 28 day) was 103.2 meq/L. It also gave a DBIL ([…], time 28 day) of 0.08 mg/dL, a GLC ([…], time 28 day) of 197.2 mg/dL and an IP ([…], time 28 day) of 8 mg/dL. For the same compound, the K ([…], time 28 day) was 3.8 meq/L, the LDH ([…], time 28 day) was 178.8 IU/L and the Na ([…], time 28 day) was 142.4 meq/L. For the same compound, the PL ([…], time 28 day) was 146.4 mg/dL, the RALB ([…], time 28 day) was 3.9 g/dL and the TBIL ([…], time 28 day) was 0.2 mg/dL. The TC ([…], time 28 day) was 88.4 mg/dL, the TG ([…], time 28 day) was 18.2 mg/dL and the TP ([…], time 28 day) was 6.1 g/dL. The gamma-GTP ([…], time 28 day) was 1.6 IU/L.
